Measured values from patent publication US12565467B2, “Compounds, compositions, and methods for the treatment of inflammatory, degenerative, and neurodegenerative diseases” (Board of Supervisors of Louisiana State University and …, priority 2015, dated 2026).
Entries after “also recorded” stand apart in the source; their conditions may differ.

How the values were obtained:
[1] = tested on: human retinal pigment epithelial cells (ARPE-19, HRPE); assay: Formation of hydroxylated derivatives from VLC-PUFA in human RPE cells in culture (LC-MS/MS); assay type: in vitro ADME; conditions: 34:6n3 100 nM, 12-16 hours, culture media
Description: FIG. 2. Evidence of cell-derived hydroxylated derivatives (29-hydroxy-34:6 and 22,29-dihydroxy-34:6) derived from the omega-3 VLC-PUFA 34:6n3 (C34:6) from human retinal pigment epithelial cells in culture. Human retinal pigment epithelial cells (spontaneously transformed ARPE-19 cells) or primary human retinal pigment epithelial cells (HRPE) were incubated with 34:6n3 (100 nM) during 12-16 hours and then the culture media collected lipid extracted and run in LC-MS/MS.
Evidence for the formation of hydroxylated VLC-PUFA in cells as postulated in FIG. 1, and as documented in FIG. 2. […] The preferred structures of 2 are 2a and 2b, while the preferred structures of 3 are 3a and 3b. […] The cell-derived hydroxylated derivatives 2 and 3 were obtained from human retinal pigment epithelial cells in culture. Human retinal pigment epithelial cells (spontaneously transformed ARPE-19 cells) or primary human retinal pigment epithelial cells (HRPE) were incubated with 34:6n3 (100 nM) during 12-16 hours and then the culture media collected lipid extracted and run in LC-MS/MS. […] The stereochemistry of the mono- and di-hydroxy compounds were not possible to determine, but they were presumed to be the same as those derived from DHA.

SIRT1 = SIRT1 abundance in ARPE-19 cells under oxidative stress; assay type: cell-based; conditions: ARPE-19 / human RPE cells confronted with OS
Text: FIG. 10. (A) Effect of NPD1 and VLC-PUFA C32:6 and C34:6 in mediating upregulation of SIRT1 in ARPE-19 cells. (B) Quantification of SIRT1 upregulation by NPD1, C32:6 and C34:6. SIRT1 (Sirtuin1) belongs to a family of highly conserved proteins linked to caloric restriction beneficial outcomes and aging by regulating energy metabolism, genomic stability and stress resistance. SIRT1 is a potential therapeutic target in several diseases including cancer, diabetes, inflammatory disorders, and neurodegenerative diseases or disorders. Elovanoids induce cell survival involving the upregulation of the Bcl2 class of survival proteins and the downregulation of pro-apoptotic Bad and Bax under oxidative stress (OS) in RPE cells. […] As a consequence, remarkable cell survival takes place. This target of elovanoids might be relevant to counteract consequences of several diseases associated with SIRT1.
FIG. 10—(A) Effect of NPD1 and VLC-PUFA C32:6 and C34:6 in mediating upregulation of SIRT1 in ARPE-19 cells. (B) Quantification of SIRT1 upregulation by NPD1, C32:6 and C34:6. SIRT1 (Sirtuin1) belongs to a family of highly conserved proteins linked to caloric restriction beneficial outcomes and aging by regulating energy metabolism, genomic stability and stress resistance. […]

Bcl-xL = Bcl-xL protein in ARPE-19 cells under oxidative stress; assay type: cell-based, human; conditions: ARPE-19 cells under OS
Description: (§1) FIG. 8. (A) Bcl-xL-upregulation by elovanoids ELV1 and ELV2 in ARPE-19 cells under stress. Bcl-xL is the antiapoptotic Bcl2 family protein. Like proapoptotic proteins Bid and Bim, the effect of elovaniod precursors on the antiapoptotic protein Bcl-xL was tested in this figure in RPE cells under OS. […] (B) Effect of NPD1, ELV1 and ELV2 on Bax expression in LOX-D cells under stress. Proapoptotic Bax was tested in this figure. […] C) VLC-PUFA and elovanoids ELV1 and ELV2 mediated effect on Bax upregulation in ARPE-19 cells under stress. In this experiment, elovanoid precursors along with VLC-PUFA were tested on the downregulation of the Bax protein in RPE cells under stress.
as §1, with “8—(A)” for “8. (A)”

[2] = tested on: neuronal cells in primary cultures; assay: NMDA-induced toxicity in neuronal cells in primary culture, MTT assay for cell viability; assay type: cell-based
Text: FIG. 11. […] In several neurological and neurodegenerative diseases, such as stroke, epilepsy, status epilepticus, traumatic head injury, etc., as well as ophthalmological diseases, such as glaucoma, an excessive presynaptic release of the excitatory neurotransmitter glutamate takes place. As a consequence, glutamate transporters that function to remove extracellular glutamate from astrocytes and neurons are overwhelmed and the NMDA-type glutamate receptor is over-activated. This receptor is a calcium channel that therefore leads to a flooding of calcium into the postsynaptic cell. The overall phenomena is refer to as excitotoxicity that in turn leads to neuronal damage and cell death. MK801 is a known blocker of this receptor used here as a control.
In several neurological and neurodegenerative diseases, such as stroke, epilepsy, status epilepticus, traumatic head injury, etc., as well as ophthalmological diseases, such as glaucoma, an excessive presynaptic release of the excitatory neurotransmitter glutamate takes place. As a consequence, glutamate transporters that function to remove extracellular glutamate from astrocytes and neurons are overwhelmed and the NMDA-type glutamate receptor is over-activated. This receptor is a calcium channel that therefore leads to a flooding of calcium into the postsynaptic cell. The overall phenomena is refer to as excitotoxicity that in turn leads to neuronal damage and cell death. MK801 is a known blocker of this receptor used here as a control.

Compound	conversion to mono- and di-hydroxylated derivatives in cell culture (FIG. 2) [1]	effect on SIRT1 abundance (FIG. 10) (SIRT1)	effect on antiapoptotic Bcl-xL protein (FIG. 8A) (Bcl-xL)	protection of neuronal cells from NMDA-induced toxicity (FIG. 11A) ([2]; 200 nM)	cell death and cell viability with NMDA in increasing concentrations (FIG. 11) ([2]; neuronal cultures, MTT)
CC/C=C\C/C=C\C/C=C\C/C=C\C/C=C\C/C=C\CCCCCCCCCCCCCCC(=O)O [C34:6]	yielded a hydroxylated product; also recorded: could be detected	mediate the upregulation of SIRT1	–	–	–
CC/C=C\C[C@H](O)\C=C/C=C/C=C/[C@H](O)C/C=C\C/C=C\CCCCCCCCCCCCCCC(=O)O [ELV2, (16Z,19Z,22R,23E,25E,27Z,29S,31Z)-22,29-dihydroxytetratriaconta-16,19,23,25,27,31-hexaenoic acid]	–	–	potent upregulation	potently protects neuronal cells	reduces cell death and increases cell viability
